Each molecule was assayed against human activated kallikrein enzyme (Homo sapiens (Human), UniProt P03952) (assay: Inhibition of human activated plasma kallikrein, fluorogenic peptide substrate assay (500 pM enzyme format)). Conditions: 500 pM activated kallikrein, 300 uM Pro-Phe-Arg-7-amido-4-methylcoumarin substrate, 30 min preincubation, 10 min reaction at RT; read-out: Primary Dose Response Assay: Average EC50.
Type: biochemical
Description: Inhibitory Activity of Exemplary Compounds against Plasma Kallikrein. Example compounds were evaluated for inhibition of the human activated kallikrein enzyme in two formats of an assay employing a fluorogenic peptide substrate. In one assay format, the concentrations of reagents were as follows: 20 mM Tris pH 7.5, 1 mM EDTA, 150 mM sodium chloride, 0.1% PEG-400, 0.1% Triton X-100, 500 pM activated kallikrein enzyme, 300 uM Pro-Phe-Arg-7-amido-4-methylcoumarin substrate. Prior to reaction initiation with substrate, enzyme and inhibitors were preincubated for 30 min at RT. After initiation with substrate, reactions were incubated for 10 min at RT and fluorescence emission at 460 nm from 380 nm excitation measured with a microplate reader. In another assay format, the concentrations of reagents were as follows: 20 mM Tris pH 7.5, 1 mM EDTA, 150 mM sodium chloride, 0.1% PEG-400, 0.1% Triton X-100, 5 pM activated kallikrein enzyme, 300 uM Pro-Phe-Arg-7-amido-4-methylcoumarin substrate. Prior to reaction initiation with substrate, enzyme and inhibitors were preincubated for 30 min at RT. After initiation with substrate, reactions were incubated for 18 h at RT and fluorescence emission at 460 nm from 380 nm excitation measured with a microplate reader.
Table 1 provides the results of the assay in the format with 500 pM activated kallikrein assay. For the compounds listed in Table 1, the EC50 values are reported according to the following ranges: A≤50 nM; 50 nM<B≤200 nM; 200 nM<C≤1000 nM; 1000 nM<D.

Sequence of human activated kallikrein enzyme (P03952 391-638): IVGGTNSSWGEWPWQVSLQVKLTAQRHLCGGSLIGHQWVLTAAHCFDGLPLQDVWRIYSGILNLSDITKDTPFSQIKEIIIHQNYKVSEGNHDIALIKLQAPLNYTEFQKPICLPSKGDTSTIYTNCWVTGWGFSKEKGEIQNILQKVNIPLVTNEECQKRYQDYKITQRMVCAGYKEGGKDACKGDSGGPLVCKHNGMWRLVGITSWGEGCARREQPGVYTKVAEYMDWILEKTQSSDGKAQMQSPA
Sequence of human activated kallikrein enzyme (P03952 20-390 partner): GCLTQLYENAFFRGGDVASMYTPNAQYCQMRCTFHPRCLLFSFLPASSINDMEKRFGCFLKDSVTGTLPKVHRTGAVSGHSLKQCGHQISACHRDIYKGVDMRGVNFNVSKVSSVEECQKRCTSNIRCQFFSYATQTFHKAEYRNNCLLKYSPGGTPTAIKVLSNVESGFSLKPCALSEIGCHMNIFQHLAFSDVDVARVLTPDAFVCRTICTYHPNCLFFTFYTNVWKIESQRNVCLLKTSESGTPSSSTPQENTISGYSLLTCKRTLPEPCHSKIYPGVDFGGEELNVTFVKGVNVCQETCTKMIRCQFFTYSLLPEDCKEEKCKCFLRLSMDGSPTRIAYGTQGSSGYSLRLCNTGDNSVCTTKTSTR

| EC50 [nM] | SMILES |
| --- | --- |
| ≤ 50 | O=C(Cc1ncn2ccc(Cl)cc12)NCc1cn(Cc2cn3cc(C4CC4)ccc3n2)nn1 [Compound I-1, 2-(7-chloroimidazo[1,5-a]pyridin-1-yl)-N-((1-((6-cyclopropylimidazo[1,2-a]pyridin-2-yl)methyl)-1H-1,2,3-triazol-4-yl)methyl)acetamide] |
| > 1000 | Fc1c(Cl)ccn2cnc(C(NCc3cn(Cc4cn5cc(C6CC6)ccc5n4)nn3)C(F)(F)F)c12 (stereo not drawn) [Compound I-2, 1-(7-chloro-8-fluoroimidazo[1,5-a]pyridin-1-yl)-N-((1-((6-cyclopropylimidazo[1,2-a]pyridin-2-yl)methyl)-1H-1,2,3-triazol-4-yl)methyl)-2,2,2-trifluoroethan-1-amine] |
| 50 to 200 | O=C(NCc1cn(Cc2cn3cc(C4CC4)ccc3n2)nn1)c1ncn2ccc(Cl)c(F)c12 [Compound I-3, 7-chloro-N-((1-((6-cyclopropylimidazo[1,2-a]pyridin-2-yl)methyl)-1H-1,2,3-triazol-4-yl)methyl)-8-fluoroimidazo[1,5-a]pyridine-1-carboxamide] |
| 200 to 1000 | O=S(=O)(NCc1ncn2ccc(Cl)c(F)c12)c1cnn(Cc2cn3cc(C4CC4)ccc3n2)c1 [Compound I-4, N-((7-chloro-8-fluoroimidazo[1,5-a]pyridin-1-yl)methyl)-1-((6-cyclopropylimidazo[1,2-a]pyridin-2-yl)methyl)-1H-pyrazole-4-sulfonamide] |
| 200 to 1000 | O=S(=O)(NCc1ncn2ccc(Cl)c(F)c12)c1cn(Cc2cn3cc(C4CC4)ccc3n2)nn1 [Compound I-5, N-((7-chloro-8-fluoroimidazo[1,5-a]pyridin-1-yl)methyl)-1-((6-cyclopropylimidazo[1,2-a]pyridin-2-yl)methyl)-1H-1,2,3-triazole-4-sulfonamide] |
| ≤ 50 | O=S(=O)(NCc1cn(Cc2cn3cc(C4CC4)ccc3n2)nn1)c1ncn2ccc(Cl)c(F)c12 [Compound I-6, 7-chloro-N-((1-((6-cyclopropylimidazo[1,2-a]pyridin-2-yl)methyl)-1H-1,2,3-triazol-4-yl)methyl)-8-fluoroimidazo[1,5-a]pyridine-1-sulfonamide] |
| ≤ 50 | CC(NS(=O)(=O)c1ncn2ccc(Cl)c(F)c12)c1cn(Cc2cn3cc(C4CC4)ccc3n2)nn1 (stereo not drawn) [Compound I-7, 7-chloro-N-(1-(1-((6-cyclopropylimidazo[1,2-a]pyridin-2-yl)methyl)-1H-1,2,3-triazol-4-yl)ethyl)-8-fluoroimidazo[1,5-a]pyridine-1-sulfonamide] |
| ≤ 50 | O=C(NCc1ncn2ccc(Cl)c(F)c12)c1cn2c(n1)CCC2c1cn2cc(C3CC3)ccc2n1 (stereo not drawn) [Compound I-8, N-((7-chloro-8-fluoroimidazo[1,5-a]pyridin-1-yl)methyl)-5-(6-cyclopropylimidazo[1,2-a]pyridin-2-yl)-6,7-dihydro-5H-pyrrolo[1,2-a]imidazole-2-carboxamide] |
| 200 to 1000 | O=C(NCc1ncn2ccc(Cl)c(F)c12)c1cnc2n1C(c1cn3cc(C4CC4)ccc3n1)CC2 (stereo not drawn) [Compound I-9, N-((7-chloro-8-fluoroimidazo[1,5-a]pyridin-1-yl)methyl)-5-(6-cyclopropylimidazo[1,2-a]pyridin-2-yl)-6,7-dihydro-5H-pyrrolo[1,2-a]imidazole-3-carboxamide] |
| ≤ 50 | N#Cc1ccn2cnc(CNC(=O)c3cnn(Cc4cn5cc(C6CC6)ccc5n4)c3)c2c1 [Compound I-10, N-((7-cyanoimidazo[1,5-a]pyridin-1-yl)methyl)-1-((6-cyclopropylimidazo[1,2-a]pyridin-2-yl)methyl)-1H-pyrazole-4-carboxamide] |
| ≤ 50 | Fc1c(Cl)ccn2cnc(CNCc3cn(Cc4cn5cc(C6CC6)ccc5n4)nn3)c12 [Compound I-11, 1-(7-chloro-8-fluoroimidazo[1,5-a]pyridin-1-yl)-N-((1-((6-cyclopropylimidazo[1,2-a]pyridin-2-yl)methyl)-1H-1,2,3-triazol-4-yl)methyl)methanamine] |
| 50 to 200 | CC(NCc1ncn2ccc(Cl)c(F)c12)c1cn(Cc2cn3cc(C4CC4)ccc3n2)nn1 (stereo not drawn) [Compound I-12, N-((7-chloro-8-fluoroimidazo[1,5-a]pyridin-1-yl)methyl)-1-(1-((6-cyclopropylimidazo[1,2-a]pyridin-2-yl)methyl)-1H-1,2,3-triazol-4-yl)ethan-1-amine] |
| ≤ 50 | CC(NC(=O)Cc1ncn2ccc(Cl)cc12)c1cn(Cc2cn3cc(C4CC4)ccc3n2)nn1 (stereo not drawn) [Compound I-13, 2-(7-chloroimidazo[1,5-a]pyridin-1-yl)-N-(1-(1-((6-cyclopropylimidazo[1,2-a]pyridin-2-yl)methyl)-1H-1,2,3-triazol-4-yl)ethyl)acetamide] |
| ≤ 50 | COC(=O)c1cc(C2CC2)cn2cc(Cn3cc(CNCc4ncn5ccc(Cl)c(F)c45)nn3)nc12 [Compound I-14, Methyl 2-((4-((((7-chloro-8-fluoroimidazo[1,5-a]pyridin-1-yl)methyl)amino)methyl)-1H-1,2,3-triazol-1-yl)methyl)-6-cyclopropylimidazo[1,2-a]pyridine-8-carboxylate] |
| 200 to 1000 | O=C(O)c1cc(C2CC2)cn2cc(Cn3cc(CNCc4ncn5ccc(Cl)c(F)c45)nn3)nc12 [Compound I-15, 2-((4-((((7-chloro-8-fluoroimidazo[1,5-a]pyridin-1-yl)methyl)amino)methyl)-1H-1,2,3-triazol-1-yl)methyl)-6-cyclopropylimidazo[1,2-a]pyridine-8-carboxylic Acid] |
| ≤ 50 | Fc1c(Cl)ccn2cnc(CNC(c3cnn(Cc4cn5cc(C6CC6)ccc5n4)c3)C(F)(F)F)c12 (stereo not drawn) [Compound I-16, N-((7-chloro-8-fluoroimidazo[1,5-a]pyridin-1-yl)methyl)-1-(1-((6-cyclopropylimidazo[1,2-a]pyridin-2-yl)methyl)-1H-pyrazol-4-yl)-2,2,2-trifluoroethan-1-amine] |
| ≤ 50 | CCOC(=O)CCc1cc(C2CC2)cn2cc(Cn3cc(CNCc4ncn5ccc(Cl)c(F)c45)nn3)nc12 [Compound I-17a, Ethyl 3-(2-((4-((((7-chloro-8-fluoroimidazo[1,5-a]pyridin-1-yl)methyl)amino)methyl)-1H-1,2,3-triazol-1-yl)methyl)-6-cyclopropylimidazo[1,2-a]pyridin-8-yl)propanoate] |
| ≤ 50 | O=C(O)CCc1cc(C2CC2)cn2cc(Cn3cc(CNCc4ncn5ccc(Cl)c(F)c45)nn3)nc12 [Compound I-17b, 3-(2-((4-((((7-chloro-8-fluoroimidazo[1,5-a]pyridin-1-yl)methyl)amino)methyl)-1H-1,2,3-triazol-1-yl)methyl)-6-cyclopropylimidazo[1,2-a]pyridin-8-yl)propanoic acid] |
| ≤ 50 | Fc1c(Cl)ccn2cnc(CNCc3cn(Cc4cn5cc(C6CC6)cc(-n6cnnc6)c5n4)nn3)c12 [Compound I-18, 1-(7-chloro-8-fluoroimidazo[1,5-a]pyridin-1-yl)-N-((1-((6-cyclopropyl-8-(4H-1,2,4-triazol-4-yl)imidazo[1,2-a]pyridin-2-yl)methyl)-1H-1,2,3-triazol-4-yl)methyl)methanamine] |
| 50 to 200 | O=C(Cc1ncn2ccc(Cl)cc12)NC(c1cnn(Cc2cn3cc(C4CC4)ccc3n2)c1)C(F)(F)F (stereo not drawn) [Compound I-19, 2-(7-chloroimidazo[1,5-a]pyridin-1-yl)-N-(1-(1-((6-cyclopropylimidazo[1,2-a]pyridin-2-yl)methyl)-1H-pyrazol-4-yl)-2,2,2-trifluoroethyl)acetamide] |
| ≤ 50 | CN1CCN(c2cc(C3CC3)cn3cc(Cn4cc(C(=O)NCc5ncn6ccc(Cl)c(F)c56)nn4)nc23)CC1 [Compound I-20, N-((7-chloro-8-fluoroimidazo[1,5-a]pyridin-1-yl)methyl)-1-((6-cyclopropyl-8-(4-methylpiperazin-1-yl)imidazo[1,2-a]pyridin-2-yl)methyl)-1H-1,2,3-triazole-4-carboxamide] |

Reference: US11370803B2, “Heteroaryl plasma kallikrein inhibitors” (Takeda Pharmaceutical Company Limited, priority 2019, dated 2022)
